Entries after “also recorded” stand apart in the source; their conditions may differ.
Legend:
[1] = tested on: Orf W1 insertion duplication mutant of R6x; assay: Phenotypes of the mutants: lysis, Orf W1 mutant; type: cell-based, S. pneumoniae
Description: (§1) Bacterial strains and growth conditions: The parental strain of S. pneumoniae used in these studies was R6x [Tiraby et al., Proc. Natl. Acad. Sci. USA., 70:3541-3545 (1973)], a derivative of the unencapsulated Rockefeller strain R36A [Avery et al., J. Ex. Med., 79:137-158 (1944)]. Pneumococci were routinely grown on tryptic soy agar (TSA, Difco) supplemented with sheep blood to a final concentration of 3% (v/v). For growth in liquid culture, the bacteria were grown in a semi-synthetic casein hydrolysate medium supplemented with yeast extract (C+Y, [Lacks et al., Biochem. Biophys. Acta., 39:508-517 (1960)]). For the selection and maintenance of pneumococci containing chromosomally integrated plasmids, bacteria were grown in the presence of 1 μg/ml erythomycin and/or 250 μg/ml kanamycin.
(§2) Construction of mutations: Insertion duplication mutagenesis was carried out using PCR to generate gene fragments for homologous recombination proximal to the amino terminus of Orf W1, HK or RR as follows:
OrfW1: 435 bp gene fragment spanning residues 473 (EcoR1 site) to 908 (BamH1 site) of SEQ ID NO:21.
(§3) Phenotypes of the mutants: The mutants were assessed for various physiological functions characteristic of pneumococci. This included lysis by penicillin, vancomycin, and the detergent deoxycholate (DOC). Other capabilities tested included ability to undergo natural DNA transformation (Transform) and expression of the LytA protein as assessed by Western blot. All mutants grew at the normal 30-40 minute doubling time and formed the classical diplococcal morphology.

[2] = tested on: RR insertion duplication mutant of R6x; assay: Phenotypes of the mutants: lysis, RR mutant; type: cell-based, S. pneumoniae
Description: as §1, §2
RR: 371 bp gene fragment spanning residues 142 (EcoR1 site) to 513 (BamH1 site) of SEQ ID NO:15.
as §3

[3] = tested on: HK insertion duplication mutant of R6x; assay: Phenotypes of the mutants: lysis, HK mutant; type: cell-based, S. pneumoniae
Description: as §1, §2
HK: 411 bp gene fragment spanning residues 279 (EcoR1 site) to 690 (BamH1 site) of SEQ ID NO:13.
as §3

[4] = tested on: clinical isolate F79 (mutations in HK and ABC transporter genes); assay: Lysis of clinical isolate F79 cells; type: cell-based, pneumococcus; settings: 10×MIC penicillin and/or 0.5 mM peptide
Description: (§4) FIGS. 11A-11B show the effects of 10×MIC of penicillin and/or 0.5 mM of the peptide having the amino acid sequence of SEQ ID NO:2 on the lysis of clinical isolate F79 cells (FIG. 11A) and HK mutant VanS cells (FIG. 11B).
(§5) F79 is a natural isolate of pneumococcus with mutations in the HK and the ABC transporter genes as determined by SSCP (see Example 11). This strain is tolerant to penicillin and vancomycin.

clinical isolate A144 [5] = assay: Cell viability (CFU/ml) of clinical isolate A144 one hour after addition; type: cell-based, pneumococcus; settings: 10×MIC penicillin, 10×MIC vancomycin or 0.4 mM peptide
Text: (§6) Tolerance to penicillin occurs in bacteria that fail to trigger autolysins in response to the drug. […] This is a mechanism of resistance to these drugs and is a serious emerging medical problem. […] However, one pneumococcal strain that fails to lyse and dies slowly in response to both penicillin and vancomycin is the clinical isolate A144. This combination of traits makes A144 recalcitrant to therapy. FIG. 8 compares the activity of penicillin, vancomycin, and the peptide against a classical sensitive strain, R6, and the tolerant strain A144. […] In contrast, strain A144 loses only 0.5 logs of viability in the same time period for all three therapies. […] Thereafter the bacteria grew more slowly than untreated controls.

[6] = tested on: loss of function mutants of the ABC transporter and RR/HK; assay: Tolerance of loss of function mutants in ABC transporter and RR/HK to antibiotics; type: cell-based, S. pneumoniae; settings: all 3 mutants; growth inhibitory concentrations
Text: As described in Example 6, using insertion duplication mutagenesis, loss of function mutations were obtained in each of the 3 open reading frames of the ABC transporter and each of the two parts of the RR/HK. […] These parallel phenotypes further implicate these topographically close genes in a common pathway.
Vancomycin is the only antibiotic that maintains efficacy against many strains of highly antibiotic resistant bacteria, such as staphylococci, enterococci and pneumococci. Escape from antibiotic activity of vancomycin has been detected in rare staphylococci and enterococci but not in pneumococci as yet. […] Infect. Dis. J., 12:196-200 (1993); Marton et al., J. Infect. Dis., 163:542-8 (1991); and Bradley et al., Pediatr. Infect. Dis., 14:1037-1041(1995)]. […] If they created a phenotype which was corrected by exogenous peptide, they may participate in the biological activity of the peptide. For instance, the ABC transporter may transport the peptide and the HK may serve as an extracellular receptor for the peptide which then changes the behavior of the bacteria (i.e. killing) via a RR signal.

pneumococcal strain R6 [7] = assay: Cell growth curves (OD 620 nm) of R6 cultures with or without test reagents; type: cell-based, Streptococcus pneumoniae; settings: for ability to inhibit R6 growth (FIG. 5): 100 μM peptide added to growing R6 at OD 620 nm of 0.1
Description: (§7) Cell growth curves were performed in the presence or absence of the test reagents as specified. In short, samples were prepared as follows: 1 ml of a pneumococcus culture was placed into 10 ml of prewarmed Semisynthetic (C+Y) medium. The optical density (OD) of the bacteria was monitored at 620 nm until an OD of approximately 0.1 was reached. At this point the test reagents were administered to the samples. The cells were cultured for up to 11 hours at 37° Celsius, and the OD at 620 nm was monitored every hour. A decrease in OD 620 is indicative of cell lysis, an increase is indicative of bacterial growth. No change in optical density indicates growth inhibition.
(§8) The peptide having amino acid sequence SEQ ID NO:2 was chemically synthesized and tested for growth inhibiting, killing and lytic activity in Streptococcus pneumoniae cultures. To characterize the antibacterial activity of the peptide, pneumococcal strain R6 which is sensitive to penicillin was exposed to 0.1 mM of the peptide having the amino acid sequence of SEQ ID NO:2 at an optical density of 0.01 (bacterial density of 3×10^6 cfu/ml). Bacterial growth as measured by optical density was followed for 11 hours and viability was assessed by plating on blood agar. […] Four hours after the start of the experiment, the control strain grew from 3×10^6 to 1.2×10^7 cfu/ml. In contrast, four hours after addition of the peptide, the viable bacterial number decreased from 3×10^6 to 3×10^4 CFU/ml (10^3-fold lower than the control).
The fact that the peptide is active in the range below 1 μg/ml places the potency of its antibacterial effect in the same range as conventional antibiotics.
R6 with no peptide was the control and underwent exponential growth.

HK mutant strain Van S = assay: Lysis of HK mutant VanS cells; type: cell-based, pneumococcus; settings: 10×MIC penicillin and/or 0.5 mM peptide
Description: as §4, §5

Lyt 4-4 = assay: Chain morphology of Lyt 4-4; type: cell-based, Streptococcus pneumoniae; settings: 0.5 mM peptide in the medium
Text: Loss of chain formation is a measure of antibacterial activity independent of autolysin.
Strains of pneumococcus that are tolerant to penicillin, such as Lyt 4-4, grow in long chains as compared to the diplococcal morphology of wild type pneumococci. FIG. 6A illustrates these chains, which extend to 30-50 bacteria in length.

mutant in ORF WI = assay: Antibacterial activity of the peptide in mutants: growth inhibition, ORF W1 mutant; type: cell-based, S. pneumoniae; settings: peptide added from the outside
Text: (§9) To test this hypothesis the ability of the peptide having the amino acid sequence of SEQ ID NO:2 to maintain antibacterial activity in the mutants was examined. […] Furthermore, bacteria which are tolerant by virtue of phenotypic tolerance due to slow growth rate or mutations in genes other than the RR/HK will be susceptible to the antibacterial effect of the peptide.

clinical isolate A144 [8] = assay: Growth of clinical isolate A144; type: cell-based, pneumococcus; settings: 0.1 mM peptide added early in the growth cycle; for 4 hours
Text: as §6

RR/HK mutants = assay: Antibacterial activity of the peptide in mutants: growth inhibition, RR/HK mutants; type: cell-based, S. pneumoniae; settings: peptide added exogenously
Text: as §9

pneumococcal strain R6 [9] = assay: Cell viability (CFU/ml) of R6, plating on blood agar; type: cell-based, Streptococcus pneumoniae; settings: 0.1 mM peptide
Description: as §8, §6

[10] = tested on: pneumococcus R6, non-growing; assay: Lysis of R6 cells under starvation conditions (medium lacking lysine); type: cell-based; settings: 10×MIC penicillin and/or 0.5 mM peptide
Text: When bacteria grow slowly or stop growing due to nutrient deprivation, they become tolerant to antibiotics of all classes. […] This prolongs the course of antibiotics needed to treat these infections. For instance, many weeks of therapy are required to treat endocarditis and osteomyelitis secondary to slowly growing bacteria. An in vitro example of phenotypic tolerance is shown in FIG. 10 where pneumococcus R6 has been transferred at time 0 to a medium lacking the essential amino acid lysine. Penicillin was added 5 min after the transfer. […] This same response is seen with the peptide.

[11] = tested on: Lyt-4-4 strain of Streptococcus pneumoniae (loss of LytA activity); assay: Growth curve (OD 620 nm) of autolysin deficient strain Lyt 4-4; type: cell-based; settings: 0.1 mM peptide; absence of autolytic activity
Description: The addition of the additives were made at time “0” hours. The strain of bacteria cultured was the Lyt-4-4 strain of Streptococcus pneumoniae which harbors a mutation leading to the loss of LytA activity. The peptide having the amino acid sequence of SEQ ID NO:2 was added as indicated at a concentration of 0.1 mM. Lyt-4-4 lacks active autolysin LytA and is therefore tolerant to penicillin treatment.
as §7
This antibacterial effect was also demonstrable in bacteria mutated so as to prevent autolysis by point mutation in the autolysin, as in the autolysin deficient strain Lyt 4-4.

CN[C@H](CC(C)C)C(=O)N[C@H]1C(=O)N[C@@H](CC(N)=O)C(=O)N[C@H]2C(=O)N[C@H]3C(=O)N[C@H](C(=O)N[C@H](C(=O)O)c4cc(O)cc(O)c4-c4cc3ccc4O)[C@H](O)c3ccc(c(Cl)c3)Oc3cc2cc(c3O[C@@H]2O[C@H](CO)[C@@H](O)[C@H](O)[C@H]2O[C@H]2C[C@](C)(N)[C@H](O)[C@H](C)O2)Oc2ccc(cc2Cl)[C@H]1O [Vancomycin, vancomycin]
Lysis by [1]: tolerant
Lysis by [2]: sensitive
Lysis by [3]: tolerant
lysis / tolerance of F79 [4]: tolerant
loss of viability of A144 within one hour (clinical isolate A144 [5]): 0.5 logs
lysis and death / tolerance of the mutants [6]: exhibited tolerance

LADKRPARDYN (listed as Streptococcus pneumoniae) [Peptide 5]
ability to inhibit R6 growth (FIG. 5) (pneumococcal strain R6 [7]): Exponential growth equal to untreated bacteria

MEFMRKEFHNVLSSGQLLADKRPARDYN (listed as Streptococcus pneumoniae) [SEQ ID NO:12]
antibacterial activity against R6 (pneumococcal strain R6 [7]): no antibacterial activity

MRKEFHNVLSAGQLLADKRPARDYN [Peptide 3]
ability to inhibit R6 growth (FIG. 5) (pneumococcal strain R6 [7]): greatly enhanced antibacterial effect

MRKEFHNVLSSGQL (listed as Streptococcus pneumoniae) [Peptide 4]
ability to inhibit R6 growth (FIG. 5) (pneumococcal strain R6 [7]): Exponential growth equal to untreated bacteria

MRKEFHNVLSSGQLLADKRPARDAN [Peptide 2]
ability to inhibit R6 growth (FIG. 5) (pneumococcal strain R6 [7]): greatly decreased anti-bacterial activity

MRKEFHNVLSSGQLLADKRPARDYN (listed as Streptococcus pneumoniae) [Peptide 1]
lysis / tolerance of strain Van S (HK mutant strain Van S): not responsive
chain morphology of Lyt 4-4 (Lyt 4-4; listed as SEQ ID NO.2): dissolution of the chains
chain morphology of Lyt 4-4 (Lyt 4-4; listed as the peptide): reversion of the chains to diplococci
ability to inhibit R6 growth (FIG. 5) (pneumococcal strain R6 [7]): significant delay in the onset of bacterial growth
lysis (pneumococcal strain R6 [7]; 0.1 mM peptide, R6, followed for 11 hours): No lysis was detected
growth of the bacteria (optical density) (pneumococcal strain R6 [7]; 0.1 mM peptide, R6 at optical density 0.01 (3×10^6 cfu/ml), followed for 11 hours): completely inhibited growth
minimum effective concentration (MEC) (pneumococcal strain R6 [7]; R6, converted with molecular weight 2940): 0.15 to 0.3 µg/mL
minimum effective concentration (MEC) (pneumococcal strain R6 [7]; R6, optical density of the culture over 4 hours): 50 to 100 nM
dose response of antibacterial activity (pneumococcal strain R6 [7]; R6, various amounts of peptide, 4 hours): dose dependent antibacterial activity
growth inhibition of the mutant in ORF W1 (mutant in ORF WI): not able to inhibit growth
growth of strain A144 (clinical isolate A144 [8]): significantly inhibits the growth
growth inhibition of the RR/HK mutants (RR/HK mutants): did not function to inhibit the growth
viable bacterial number lower than the control (pneumococcal strain R6 [9]; four hours): 10^3 fold
killing of R6 (FIG. 2B) (pneumococcal strain R6 [9]; listed as SEQ ID NO:2): kills the bacteria without substantial cell lysis occurring; also recorded: rapidly killed
viable bacterial number four hours after addition of the peptide (pneumococcal strain R6 [9]; start 3×10^6, control grew to 1.2×10^7 cfu/ml): 3×10^4 CFU/ml
loss of viability of A144 within one hour (clinical isolate A144 [5]): 0.5 logs
lysis response of non-growing R6 [10]: same response
bactericidal activity in strain Lyt 4-4 [11]: demonstrable

MRKEFHNVLSSGQLLADKRPARDYNRK (listed as Streptococcus pneumoniae) [Peptide 6]
ability to inhibit R6 growth (FIG. 5) (pneumococcal strain R6 [7]): the same effect

deoxycholate [DOC]
Lysis by [1]: no
Lysis by [2]: yes
Lysis by [3]: yes

penicillin
lysis / tolerance of strain Van S (HK mutant strain Van S): tolerance
lysis of growing R6 (pneumococcal strain R6 [7]; 10×MIC, normal growth): lyses R6 within one hour
Lysis by [1]: tolerant
Lysis by [2]: sensitive
Lysis by [3]: tolerant
lysis / tolerance of F79 [4]: tolerant
loss of viability of A144 within one hour (clinical isolate A144 [5]): 0.5 logs
lysis and death / tolerance of the mutants [6]: failed to lyse and die
lysis response of non-growing R6 [10]: only a minimal response
viability of non-growing R6 [10]: unaffected
